Calls of active or inactive are those of the source. The rule behind the calls is not given here.
How the values were obtained:
[1] = tested on: Trypanosoma brucei brucei; assay: Resistance factor, ratio of IC50 for TbAT1 knock out Trypanosoma brucei brucei mutant to IC50 for wild type Trypanosoma brucei brucei s427; type: functional
[2] = tested on: Trypanosoma brucei brucei; assay: Antitrypanosomal activity against TbAT1 knock out and pentamidine-resistant Trypanosoma brucei brucei B48 mutant after 48 hrs by alamar blue assay; type: functional, organism-based
[3] = tested on: Trypanosoma brucei brucei; assay: Antitrypanosomal activity against TbAT1 knock out Trypanosoma brucei brucei mutant after 48 hrs by alamar blue assay; type: functional, organism-based
[4] = tested on: Trypanosoma brucei brucei; assay: Antitrypanosomal activity against wild type Trypanosoma brucei brucei s427 after 48 hrs by alamar blue assay; type: functional, organism-based; details: s427, 48 h
[5] = tested on: Trypanosoma brucei brucei; assay: Resistance factor, ratio of IC50 for TbAT1 knock out and pentamidine-resistant Trypanosoma brucei brucei B48 mutant to IC50 for wild type Trypanosoma brucei brucei s427; type: functional
[6] = tested on: Trypanosoma brucei brucei; assay: Inhibition of DNA replication in wild type Trypanosoma brucei brucei s427 assessed as kinetoplast disintegrate at IC50 after 24 hrs by DAPI staining visualized by fluorescence microscopy; type: functional, organism-based

Compound | Ratio IC50 [1] | IC50 [2] [µM] | IC50 [3] [µM] | IC50 [4] [µM] | Ratio IC50 [5] | Activity [6]
C[C@H]1[C@H](OC(=O)CCC(=O)OCCCNc2nc(N)nc(N)n2)O[C@@H]2O[C@@]3(C)CC[C@H]4[C@H](C)CC[C@@H]1[C@@]24OO3 | 1.2 | 12.1 | 5 | 4 | 3 | –
CC(C)(C)OC(=O)NCCCC(N)(C(=O)NCCCNc1nc(N)nc(N)n1)C(F)F (stereo not drawn) | 0.3 | > 100 | 105 | 355 | – | –
Nc1nc(N)nc(N2CCN(c3cc4c(cc3F)c(=O)c(C(=O)O)cn4C3CC3)CC2)n1 | – | – | – | 4940 | – | –
C[C@@H]1CN(c2c(F)c(N)c3c(=O)c(C(=O)O)cn(C4CC4)c3c2F)C[C@H](C)N1 [SPARFLOXACIN] | – | – | – | 18.5 | – | –
O=C(O)c1cn(C2CC2)c2cc(N3CCNCC3)c(F)cc2c1=O [CIPROFLOXACIN] | – | – | – | 17.2 | – | –
CC(C)(C)OC(=O)NCCCC(N)(C(=O)OCCCNc1nc(N)nc(N)n1)C(F)F (stereo not drawn) | 1 | 888 | 400 | 382 | 2.3 | –
CCn1cc(C(=O)O)c(=O)c2cc(F)c(N3CCNC(C)C3)c(F)c21 (stereo not drawn) [LOMEFLOXACIN] | – | – | – | 197 | – | –
CCn1cc(C(=O)O)c(=O)c2cc(F)c(N3CCN(c4nc(N)nc(N)n4)CC3)cc21 | 6.3 | 27.7 | 32.7 | 5.2 | 5.3 | inactive
CC1COc2c(N3CCN(C)CC3)c(F)cc3c(=O)c(C(=O)NCCCNc4nc(N)nc(N)n4)cn1c23 (stereo not drawn) | – | > 100 | > 100 | 112 | – | –
CCn1cc(C(=O)O)c(=O)c2cc(F)c(N3CCNCC3)cc21 [NORFLOXACIN] | – | – | – | 39.9 | – | Active
Nc1nc(N)nc(NCCCO)n1 | – | > 100 | > 100 | > 100 | – | –
C[C@H]1[C@H](OC(=O)CCC(=O)NCCCNc2nc(N)nc(N)n2)O[C@@H]2O[C@@]3(C)CC[C@H]4[C@H](C)CC[C@@H]1[C@@]24OO3 | 1.1 | 7.1 | 2.9 | 2.6 | 2.7 | –
CC1COc2c(N3CCN(C)CC3)c(F)cc3c(=O)c(C(=O)O)cn1c23 (stereo not drawn) [OFLOXACIN] | – | – | – | > 100 | – | –
C[C@H]1[C@H](OC(=O)CCC(=O)O)O[C@@H]2O[C@@]3(C)CC[C@H]4[C@H](C)CC[C@@H]1[C@@]24OO3 [ARTESUNATE] | 1.2 | 27.5 | 15 | 12.8 | 2.1 | –
NCCCNc1nc(N)nc(N)n1 | – | > 100 | > 100 | > 100 | – | –
CC1COc2c(N3CCN(C)CC3)c(F)cc3c(=O)c(C(=O)OCCCNc4nc(N)nc(N)n4)cn1c23 (stereo not drawn) | 1.1 | 31.5 | 35.7 | 31.6 | 1 | –
Nc1nc(N)nc(NCCCC(N)(C(=O)O)C(F)F)n1 (stereo not drawn) | – | – | – | > 100 | – | –
NCCCC(N)(C(=O)OCCCNc1nc(N)nc(N)n1)C(F)F (stereo not drawn) | – | > 100 | > 100 | > 100 | – | –
NCCCC(N)(C(=O)NCCCNc1nc(N)nc(N)n1)C(F)F (stereo not drawn) | – | > 100 | > 100 | > 100 | – | –

— ChEMBL document CHEMBL1152793, “Targeted delivery of compounds to Trypanosoma brucei using the melamine motif” (Bioorg Med Chem, 2009)
